Source: US10952433B2, “Solutions for enhancing the effectiveness of insecticides and fungicides on living plants and related methods” (priority 2015, dated 2021)
Where two headings read alike, the source gives them in different places.

Columns and labels:
[1] = system: lepidopteran larvae: cabbage loopers (Trichoplusia ni) and beet armyworms (Spodoptera exigua); assay type: in vivo; details: plants
Experimental: In a first group of tests, the results of which are shown in Table 7 (pages 22-24), romaine lettuce plants two to three inches in height were exposed to 10 milliliters of solution applied to each plant using a low volume trigger spray. With respect to containers 0-7, ten plants were employed per container, nine were treated and one was an internal control. In containers M-H, ten plants per container were used, five were treated and 5 were internal controls. Each container was infested with 30 lepidopteran larvae between the 5th and 6th instar development. Fifteen cabbage loopers (Trichoplusia ni) and 15 beet armyworms (Spodoptera exigua) were used to infest the romaine lettuce plants. Visual evaluations for the average percentage total surface area damage were taken 24 hours after infestation. Percentage damage was evaluated by 5% increments for total damage across all plant leaves.
As indicated in the first column of Table 7, in some tests, no insecticide was employed and there were two controls; a no water control and a no dye control. A wide variety of insecticides selected from the following group were tested: Chlorantranilopril, Acephate, Methoxyfenozide, Spinosad, Permethrin, and Indoxacarb. The product concentration is shown in PPM in column 2. Column 3 is divided into two subunits, the first being CO3 and the second, PO4. In all instances in columns 3, 4 and 5 and their sub-columns, the concentrations used were 200:1. The fourth column employed amine oxide, but no buffer. […] Two sub-columns each are represented for CO3 and PO4. The final column is a reading of the Percent Lepidopteran Damage to the romaine lettuce plants after 24 hours.
In addition to testing the buffered amine system of the present invention with the two amine oxides identified as CO3 and PO4 and their use with 12 carbon length and a mixture of 12 and 18 designated 1218 for comparative data purposes various differences were created in the testing. Some of the tests were performed with (a) no insecticide along with (b) no amine oxide for CO3 and PO4 and (c) with no buffer, but with amine oxide. Also, tests were run using no insecticide and no water control with no foliar application being made. Tests with no insecticide and no dye control employed foliar application of water only. The tests were conducted with all of the testing on the buffer alone, the amine oxide alone and the buffered amine oxide system of the present invention in the concentration of 200:1.

[2] = system: lepidopteran larvae: cabbage loopers (Trichoplusia ni) and beet armyworms (Spodoptera exigua); assay type: in vivo; details: leaf discs
Description: A second series of tests involved romaine lettuce discs approximately ⅝ inch in diameter. (L. sativa). They were dipped in the treatment solution one second per disc. This test involved the 5/5 configuration, i.e., 5 treated and 5 untreated. The infestation involved […] lepidopteran larvae at the 3rd to 4th instar development per container: four cabbage loopers (Trichoplusia ni), and four beet armyworms (Spodoptera exigua) were employed. The test containers were placed in a dark humidity cabinet at 15° C. and 80% relative humidity. Visual evaluations of the average percent damage were taken at 24, 48 and 72 hours after the initiation of infestation. Damage was evaluated in 5% increments based on total disc area.
In the tests reported in Table 8 pages 29-32), romaine lettuce leaf discs ⅝″ in diameter (L. sativa) were dipped in the treatment solution for about one second per disc. Infestation was provided by eight lepidopteran larvae at the 3rd to 4th instar development per container. Four cabbage loopers (Trichoplusia ni) and four beet armyworms (Spodoptera exigua) were employed in infestation. The containers were placed in a dark humidity cabinet at 15° C. and 80% relative humidity. Visual observations of the average percent damage was taken at 24, 48 and 72 hours after infestation. Damage evaluation was by 5% increments over the total disc area.
In the tests results provided in Table 8, the identity and concentrations of the insecticide was identical to the tests results reported in Table 7. The concentration of 200:1 was employed for the no amino oxide, no buffer and buffered amine oxide system. This series of tests, however, reported how the percent damage changed with time at the respective 24, 48 and 72 hour intervals.

[3] = insecticide + CO3 buffer 200:1, no amine oxide, PPM: Chlorantranilopril 60, Acephate 70, Methoxyfenozide 100, Spinosad 30, Permethrin 10, Indoxacarb 50
[4] = insecticide + PO4 buffer 200:1, no amine oxide, PPM: Chlorantranilopril 60, Acephate 70, Methoxyfenozide 100, Spinosad 30, Permethrin 10, Indoxacarb 50
[5] = insecticide + amine oxide 12, no buffer, 200:1, PPM: Chlorantranilopril 60, Acephate 70, Methoxyfenozide 100, Spinosad 30, Permethrin 10, Indoxacarb 50
[6] = insecticide + amine oxide 1218, no buffer, 200:1, PPM: Chlorantranilopril 60, Acephate 70, Methoxyfenozide 100, Spinosad 30, Permethrin 10, Indoxacarb 50
[7] = insecticide + buffered amine oxide system CO3, 12, 200:1, PPM: Chlorantranilopril 60, Acephate 70, Methoxyfenozide 100, Spinosad 30, Permethrin 10, Indoxacarb 50
[8] = insecticide + buffered amine oxide system CO3, 1218, 200:1, PPM: Chlorantranilopril 60, Acephate 70, Methoxyfenozide 100, Spinosad 30, Permethrin 10, Indoxacarb 50
[9] = insecticide + buffered amine oxide system PO4, 12, 200:1, PPM: Chlorantranilopril 60, Acephate 70, Methoxyfenozide 100, Spinosad 30, Permethrin 10, Indoxacarb 50
[10] = insecticide + buffered amine oxide system PO4, 1218, 200:1, PPM: Chlorantranilopril 60, Acephate 70, Methoxyfenozide 100, Spinosad 30, Permethrin 10, Indoxacarb 50
[11] = insecticide alone, highest, PPM: Chlorantranilopril 120, Acephate 140, Methoxyfenozide 200, Spinosad 60, Permethrin 20, Indoxacarb 100
[12] = insecticide alone, increased, PPM: Chlorantranilopril 90, Acephate 105, Methoxyfenozide 150, Spinosad 45, Permethrin 15, Indoxacarb 75
[13] = insecticide alone, PPM: Chlorantranilopril 60, Acephate 70, Methoxyfenozide 100, Spinosad 30, Permethrin 10, Indoxacarb 50

CNC(=O)c1cc(Cl)cc(C)c1NC(=O)c1cc(Br)nn1-c1ncccc1Cl [Chlorantranilopril]
Percent Lepidopteran Damage to Romaine Lettuce 24 hr [1, 3]: 13.5%
Percent Lepidopteran Damage to Romaine Lettuce 24 hr [1, 4]: 9.0%
Percent Lepidopteran Damage to Romaine Lettuce 24 hr [1, 5]: 9.0%
Percent Lepidopteran Damage to Romaine Lettuce 24 hr [1, 6]: 5.5%
Percent Lepidopteran Damage to Romaine Lettuce 24 hr [1, 7]: 2.5%
Percent Lepidopteran Damage to Romaine Lettuce 24 hr [1, 8]: 2.5%
Percent Lepidopteran Damage to Romaine Lettuce 24 hr [1, 9]: 4.0%
Percent Lepidopteran Damage to Romaine Lettuce 24 hr [1, 10]: 0.0%
Percent Lepidopteran Damage to Romaine Lettuce 24 hr [1, 11]: 8.5%
Percent Lepidopteran Damage to Romaine Lettuce 24 hr [1, 12]: 8.2%
Percent Lepidopteran Damage to Romaine Lettuce 24 hr [1, 13]: 10.5%
Percent Lepidopteran Damage to Romaine Lettuce 24 hr [2, 3]: 13.0%
Percent Lepidopteran Damage to Romaine Lettuce 24 hr [2, 4]: 14.0%
Percent Lepidopteran Damage to Romaine Lettuce 24 hr [2, 5]: 4.5%
Percent Lepidopteran Damage to Romaine Lettuce 24 hr [2, 6]: 10.5%
Percent Lepidopteran Damage to Romaine Lettuce 24 hr [2, 7]: 3.0%
Percent Lepidopteran Damage to Romaine Lettuce 24 hr [2, 8]: 1.0%
Percent Lepidopteran Damage to Romaine Lettuce 24 hr [2, 9]: 4.5%
Percent Lepidopteran Damage to Romaine Lettuce 24 hr [2, 10]: 6.5%
Percent Lepidopteran Damage to Romaine Lettuce 24 hr [2, 11]: 9.5%
Percent Lepidopteran Damage to Romaine Lettuce 24 hr [2, 12]: 7.5%
Percent Lepidopteran Damage to Romaine Lettuce 24 hr [2, 13]: 4.5%
Percent Lepidopteran Damage to Romaine Lettuce 48 hr [2, 3]: 17.5%
Percent Lepidopteran Damage to Romaine Lettuce 48 hr [2, 4]: 22.5%
Percent Lepidopteran Damage to Romaine Lettuce 48 hr [2, 5]: 8.0%
Percent Lepidopteran Damage to Romaine Lettuce 48 hr [2, 6]: 17.5%
Percent Lepidopteran Damage to Romaine Lettuce 48 hr [2, 7]: 5.0%
Percent Lepidopteran Damage to Romaine Lettuce 48 hr [2, 8]: 2.0%
Percent Lepidopteran Damage to Romaine Lettuce 48 hr [2, 9]: 12.5%
Percent Lepidopteran Damage to Romaine Lettuce 48 hr [2, 10]: 12.5%
Percent Lepidopteran Damage to Romaine Lettuce 48 hr [2, 11]: 17.5%
Percent Lepidopteran Damage to Romaine Lettuce 48 hr [2, 12]: 14.0%
Percent Lepidopteran Damage to Romaine Lettuce 48 hr [2, 13]: 9.0%
Percent Lepidopteran Damage to Romaine Lettuce 72 hr [2, 3]: 19.5%
Percent Lepidopteran Damage to Romaine Lettuce 72 hr [2, 4]: 24.5%
Percent Lepidopteran Damage to Romaine Lettuce 72 hr [2, 5]: 8.5%
Percent Lepidopteran Damage to Romaine Lettuce 72 hr [2, 6]: 18.5%
Percent Lepidopteran Damage to Romaine Lettuce 72 hr [2, 7]: 5.0%
Percent Lepidopteran Damage to Romaine Lettuce 72 hr [2, 8]: 2.0%
Percent Lepidopteran Damage to Romaine Lettuce 72 hr [2, 9]: 13.0%
Percent Lepidopteran Damage to Romaine Lettuce 72 hr [2, 10]: 12.5%
Percent Lepidopteran Damage to Romaine Lettuce 72 hr [2, 11]: 17.5%
Percent Lepidopteran Damage to Romaine Lettuce 72 hr [2, 12]: 15.0%
Percent Lepidopteran Damage to Romaine Lettuce 72 hr [2, 13]: 9.0%
